Experimental data reported in US20250270199A1, “THIAZOLE DERIVATIVES AND METHODS OF USING THE SAME” (Arkansas State University - Jonesboro, priority 2022, published 2025).
Converted amounts (≈) assume the structure as drawn. “And” between values parts separate entries of the source, which are not always exact repeats. Equal entries are not always repeated.

Tests used:
[1] = tested on: S. epidermidis ATCC 700296 (Se); assay: MIC, broth microdilution, Se; format: cell-based; conditions: Staphylococcus epidermidis, ATCC700296; Table 1, HT series; read-out: Minimum inhibitory concentration (MIC) Se
Method: (§1) The broth microdilution method was utilized to determine MIC values of novel thiazole derivatives against different clinically important Gram-positive bacteria according to the guidelines outlined by the Clinical and Laboratory Standards Institute (CLSI) as reported in our recent papers.^1-5 The starting concentration of compounds for MIC determination was 64 μg/mL serially diluted down the wells and the MIC values were recorded in duplicates in three independent experiments on different days.

[2] = tested on: B. subtilis ATCC 6633 (Bs); assay: MIC, broth microdilution, Bs; format: cell-based; conditions: Bacillus subtilis, ATCC6633; Table 1, HT series; read-out: Minimum inhibitory concentration (MIC) Bs
Method: as §1

[3] = tested on: S. aureus ATCC BAA-2312 (Sa 12); assay: MIC, broth microdilution, Sa 12; format: cell-based; conditions: Staphylococcus aureus, ATCCBAA2312; Table 1, HT series; read-out: Minimum inhibitory concentration (MIC) Sa 12
Method: as §1

[4] = tested on: S. aureus subsp. aureus Rosenbach BAA-1717 (Sa USA 300); assay: MIC, broth microdilution, Sa USA 300; format: cell-based; conditions: Staphylococcus aureus; Table 1, HT series; read-out: Minimum inhibitory concentration (MIC) SA USA 300
Method: as §1

[5] = tested on: S. aureus ATCC 33592 (Sa 92); assay: MIC, broth microdilution, Sa 92; format: cell-based; conditions: Staphylococcus aureus, ATCC33592; Table 1, HT series; read-out: Minimum inhibitory concentration (MIC) Sa 92
Method: as §1

[6] = tested on: E. faecalis ATCC 51299 (Efs 99); assay: MIC, broth microdilution, Efs 99; format: cell-based; conditions: Enterococcus faecalis, ATCC51299; Table 1, HT series; read-out: Minimum inhibitory concentration (MIC) Efs 99
Method: as §1

[7] = tested on: S. aureus ATCC 25923 (Sa 23); assay: MIC, broth microdilution, Sa 23; format: cell-based; conditions: replicates from different days separated by comma; for MIC: Staphylococcus aureus, ATCC25923, Table 1, HT series, read-out: Minimum inhibitory concentration (MIC) Sa 23; for Minimum inhibitory concentration (MIC) Sa 23: Table 1, HT series
Method: as §1

[8] = tested on: S. aureus ATCC 700699 (Sa 99); assay: MIC, broth microdilution, Sa 99; format: cell-based; conditions: replicates from different days separated by comma; for MIC: Staphylococcus aureus, ATCC700699, Table 1, HT series, read-out: Minimum inhibitory concentration (MIC) Sa 99; for Minimum inhibitory concentration (MIC) Sa 99: Table 1, HT series
Method: as §1

[9] = tested on: E. faecalis ATCC 29212 (Efs 12); assay: MIC, broth microdilution, Efs 12; format: cell-based; conditions: replicates from different days separated by comma; for MIC: Enterococcus faecalis, ATCC29212, Table 1, HT series, read-out: Minimum inhibitory concentration (MIC) Efs 12; for Minimum inhibitory concentration (MIC) Efs 12: Table 1, HT series
Method: as §1

[10] = tested on: E. faecium ATCC 700221 (Efm 21); assay: MIC, broth microdilution, Efm 21; format: cell-based; conditions: Enterococcus faecium, ATCC700221, Table 1, HT series; read-out: Minimum inhibitory concentration (MIC) Efm 21
Method: as §1

[11] = tested on: S. aureus subsp. aureus Rosenbach ATCC 25904 (SA Newman); assay: MIC, broth microdilution, SA Newman; format: cell-based; conditions: Staphylococcus aureus; Table 1, HT series; read-out: Minimum inhibitory concentration (MIC) Sa Newman
Method: as §1

[12] = tested on: Sa UAMS-1 MRSA ATCC 49230 (Sa UAMS); assay: MIC, broth microdilution, Sa UAMS; format: cell-based, S. aureus; conditions: Staphylococcus aureus; Table 1, HT series; read-out: Minimum inhibitory concentration (MIC) Sa UAMS
Method: as §1

[13] = tested on: S. aureus ATCC 33591 (Sa 91); assay: MIC, broth microdilution, Sa 91; format: cell-based; conditions: Staphylococcus aureus, ATCC33591; Table 1, HT series; read-out: Minimum inhibitory concentration (MIC) Sa 91
Method: as §1

[14] = tested on: S. aureus LAC MRSA (Sa LAC); assay: MIC, broth microdilution, Sa LAC; format: cell-based; conditions: Staphylococcus aureus, Table 1, HT series, read-out: Minimum inhibitory concentration (MIC) Sa LAC
Method: as §1

MIC [1] | MIC [2] | MIC [3] | MIC [4] | MIC [5] | MIC [6] | MIC [7] | MIC [8] | MIC [9] | MIC [10] | MIC [11] | MIC [12] | MIC [13] | Minimum inhibitory concentration (MIC) Sa 23 [7] | Minimum inhibitory concentration (MIC) Sa 99 [8] | Minimum inhibitory concentration (MIC) Efs 12 [9] | MIC [14] | SMILES
2 µg/mL (≈ 5.14 µM) | 2 µg/mL (≈ 5.14 µM) | 2 µg/mL (≈ 5.14 µM) | 2 µg/mL (≈ 5.14 µM) | 2 µg/mL (≈ 5.14 µM) | 2 µg/mL (≈ 5.14 µM) | 2 µg/mL (≈ 5.14 µM) | 2 µg/mL (≈ 5.14 µM) | 2 µg/mL (≈ 5.14 µM) | 2 µg/mL (≈ 5.14 µM) | 2 µg/mL (≈ 5.14 µM) | 2 µg/mL (≈ 5.14 µM) | 2 µg/mL (≈ 5.14 µM) | – | – | – | – | Oc1ccc(-c2nc(-c3cc(C(F)(F)F)cc(C(F)(F)F)c3)cs2)cc1 [Compound 36, 4-(4-(3,5-bis(trifluoromethyl)phenyl)thiazol-2-yl)phenol]
8 µg/mL (≈ 23 µM) | 16 µg/mL (≈ 45.9 µM) | 8 µg/mL (≈ 23 µM) | 8 µg/mL (≈ 23 µM) | 8 µg/mL (≈ 23 µM) | 16 µg/mL (≈ 45.9 µM) | 2 µg/mL (≈ 5.74 µM) | 2 µg/mL (≈ 5.74 µM) | – | 16 µg/mL (≈ 45.9 µM) | 4 µg/mL (≈ 11.5 µM) | 8 µg/mL (≈ 23 µM) | 4 µg/mL (≈ 11.5 µM) | 2, 2, 2 μg/mL | 2, 2, 2 μg/mL | 16 μg/mL (2×) and 2 μg/mL | 4 µg/mL (≈ 11.5 µM) | Oc1ccc(-c2nc(-c3ccc(Br)cc3)cs2)cc1O [Compound 5, 4-(4-(4-bromophenyl)thiazol-2-yl)benzene-1,2-diol]
4 µg/mL (≈ 12.4 µM) | 4 µg/mL (≈ 12.4 µM) | 4 µg/mL (≈ 12.4 µM) | 4 µg/mL (≈ 12.4 µM) | 4 µg/mL (≈ 12.4 µM) | 8 µg/mL (≈ 24.8 µM) | 4 µg/mL (≈ 12.4 µM) | 4 µg/mL (≈ 12.4 µM) | 8 µg/mL (≈ 24.8 µM) | 8 µg/mL (≈ 24.8 µM) | 4 µg/mL (≈ 12.4 µM) | 4 µg/mL (≈ 12.4 µM) | 4 µg/mL (≈ 12.4 µM) | – | – | – | – | Oc1ccc(-c2nc(-c3ccc(Cl)cc3Cl)cs2)cc1 [Compound 34, 4-(4-(2,4-dichlorophenyl)thiazol-2-yl)phenol]
2 µg/mL (≈ 6.22 µM) | 4 µg/mL (≈ 12.4 µM) | 2 µg/mL (≈ 6.22 µM) | 4 µg/mL (≈ 12.4 µM) | 4 µg/mL (≈ 12.4 µM) | > 32 µg/mL | 2 µg/mL (≈ 6.22 µM) | 4 µg/mL (≈ 12.4 µM) | > 32 µg/mL | 32 µg/mL (≈ 99.6 µM) | 4 µg/mL (≈ 12.4 µM) | 4 µg/mL (≈ 12.4 µM) | 4 µg/mL (≈ 12.4 µM) | – | – | – | – | Oc1ccc(-c2nc(-c3ccc(C(F)(F)F)cc3)cs2)cc1 [Compound 39, 4-(4-(4(trifluoromethyl)phenyl)thiazol-2-yl)phenol]
8 µg/mL (≈ 24.9 µM) | 16 µg/mL (≈ 49.7 µM) | 8 µg/mL (≈ 24.9 µM) | 4 µg/mL (≈ 12.4 µM) | 8 µg/mL (≈ 24.9 µM) | 16 µg/mL (≈ 49.7 µM) | 8 µg/mL (≈ 24.9 µM) | 8 µg/mL (≈ 24.9 µM) | 16 µg/mL (≈ 49.7 µM) | 16 µg/mL (≈ 49.7 µM) | 4 µg/mL (≈ 12.4 µM) | 4 µg/mL (≈ 12.4 µM) | 4 µg/mL (≈ 12.4 µM) | – | – | – | – | Oc1ccc(-c2nc(-c3ccc(F)c(Cl)c3)cs2)cc1O [Compound 21, 4-(4-(3-chloro-4-fluorophenyl)thiazol-2-yl)benzene-1,2-diol]
4 µg/mL (≈ 13.9 µM) | 4 µg/mL (≈ 13.9 µM) | 4 µg/mL (≈ 13.9 µM) | 4 µg/mL (≈ 13.9 µM) | 4 µg/mL (≈ 13.9 µM) | 8 µg/mL (≈ 27.8 µM) | 4 µg/mL (≈ 13.9 µM) | 4 µg/mL (≈ 13.9 µM) | 8 µg/mL (≈ 27.8 µM) | 8 µg/mL (≈ 27.8 µM) | 4 µg/mL (≈ 13.9 µM) | 4 µg/mL (≈ 13.9 µM) | 4 µg/mL (≈ 13.9 µM) | – | – | – | – | Oc1ccc(-c2nc(-c3cccc(Cl)c3)cs2)cc1 [Compound 38, 4-(4-(3-chlorophenyl)thiazol-2-yl)phenol]
8 µg/mL (≈ 23.7 µM) | 8 µg/mL (≈ 23.7 µM) | 4 µg/mL (≈ 11.9 µM) | 4 µg/mL (≈ 11.9 µM) | 8 µg/mL (≈ 23.7 µM) | 16 µg/mL (≈ 47.4 µM) | 2 µg/mL (≈ 5.93 µM) | 2 µg/mL (≈ 5.93 µM) | – | 16 µg/mL (≈ 47.4 µM) | 4 µg/mL (≈ 11.9 µM) | 4 µg/mL (≈ 11.9 µM) | 4 µg/mL (≈ 11.9 µM) | 2, 2, 2 μg/mL | 2, 2, 2 μg/mL | 16 µg/mL and 2 µg/mL and 8 µg/mL | 8 µg/mL (≈ 23.7 µM) | Oc1ccc(-c2nc(-c3ccc(C(F)(F)F)cc3)cs2)cc1O [Compound 9, 4-(4-(4-(trifluoromethyl)phenyl)thiazol-2-yl)benzene-1,2-diol]
8 µg/mL (≈ 19.7 µM) | 8 µg/mL (≈ 19.7 µM) | 2 µg/mL (≈ 4.93 µM) | 4 µg/mL (≈ 9.87 µM) | 2 µg/mL (≈ 4.93 µM) | 8 µg/mL (≈ 19.7 µM) | 2 µg/mL (≈ 4.93 µM) | 2 µg/mL (≈ 4.93 µM) | – | 8 µg/mL (≈ 19.7 µM) | 2 µg/mL (≈ 4.93 µM) | 2 µg/mL (≈ 4.93 µM) | 2 µg/mL (≈ 4.93 µM) | 1 µg/mL and 2 µg/mL | 2, 2, 2 μg/mL | 16 µg/mL and 2 µg/mL and 8 µg/mL | 2 µg/mL (≈ 4.93 µM) | Oc1ccc(-c2nc(-c3cc(C(F)(F)F)cc(C(F)(F)F)c3)cs2)cc1O [Compound 10, 4-(4-(3,5-bis(trifluoromethyl)phenyl)thiazol-2-yl)benzene-1,2-diol]
1 µg/mL (≈ 3.1 µM) | 4 µg/mL (≈ 12.4 µM) | 1 µg/mL (≈ 3.1 µM) | 1 µg/mL (≈ 3.1 µM) | 1 µg/mL (≈ 3.1 µM) | 2 µg/mL (≈ 6.21 µM) | 1 µg/mL (≈ 3.1 µM) | 1 µg/mL (≈ 3.1 µM) | 2 µg/mL (≈ 6.21 µM) | 2 µg/mL (≈ 6.21 µM) | 2 µg/mL (≈ 6.21 µM) | 2 µg/mL (≈ 6.21 µM) | 1 µg/mL (≈ 3.1 µM) | – | – | – | – | Oc1ccc(-c2nc(-c3ccc(Cl)c(Cl)c3)cs2)cc1 [Compound 41, 4-(4-(3,4-dichlorophenyl)thiazol-2-yl)phenol]
4 µg/mL (≈ 11.8 µM) | 16 µg/mL (≈ 47.3 µM) | 4 µg/mL (≈ 11.8 µM) | 4 µg/mL (≈ 11.8 µM) | 4 µg/mL (≈ 11.8 µM) | 16 µg/mL (≈ 47.3 µM) | 4 µg/mL (≈ 11.8 µM) | 4 µg/mL (≈ 11.8 µM) | 16 µg/mL (≈ 47.3 µM) | 16 µg/mL (≈ 47.3 µM) | 4 µg/mL (≈ 11.8 µM) | 4 µg/mL (≈ 11.8 µM) | 4 µg/mL (≈ 11.8 µM) | – | – | – | – | Oc1ccc(-c2nc(-c3ccc(Cl)c(Cl)c3)cs2)cc1O [Compound 31, 4-(4-(3,4-dichlorophenyl)thiazol-2-yl)benzene-1,2-diol]
